Values joined by “and” are separate entries in the source; they are usually repeats but may differ in a detail not shown here. Equal entries are not always repeated.
Key:
Assay type in all cases: biochemical
Aurora B = Aurora B (Homo sapiens, UniProt Q96GD4); assay: Kinase assay, wild type kinases; settings: compound 10 μM, 10 μM ATP, duplicate (Data 1, Data 2), >100 activation, <100 inhibition; for remaining activity at 10 µM: read-out: % Enzyme Activity (relative to DMSO controls), Aurora B
MAPKAPK2 = MAPKAPK2 (Homo sapiens, UniProt P49137); assay: Kinase assay, wild type kinases; settings: compound 10 μM, 10 μM ATP, duplicate (Data 1, Data 2), >100 activation, <100 inhibition; for remaining activity at 10 µM: read-out: % Enzyme Activity (relative to DMSO controls), MAPKAPK2
MAPKAPK2, sequence (P49137 whole entry, species assumed): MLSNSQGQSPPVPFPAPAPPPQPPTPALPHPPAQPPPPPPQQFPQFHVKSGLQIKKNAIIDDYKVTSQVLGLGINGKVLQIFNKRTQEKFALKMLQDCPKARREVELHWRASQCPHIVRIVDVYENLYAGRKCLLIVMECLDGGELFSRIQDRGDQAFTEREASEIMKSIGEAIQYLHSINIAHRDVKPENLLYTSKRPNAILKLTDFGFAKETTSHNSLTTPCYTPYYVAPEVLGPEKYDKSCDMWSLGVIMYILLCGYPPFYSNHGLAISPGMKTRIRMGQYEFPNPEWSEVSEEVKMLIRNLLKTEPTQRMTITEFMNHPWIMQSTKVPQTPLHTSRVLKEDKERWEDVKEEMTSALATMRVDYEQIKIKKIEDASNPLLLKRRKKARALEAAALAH

ERK7/MAPK15 = target: T1, ERK7/MAPK15 (Homo sapiens, UniProt Q8TD08); assay: Kinase assay, wild type kinases; settings: compound 10 μM, 10 μM ATP, duplicate (Data 1, Data 2), >100 activation, <100 inhibition; for remaining activity at 10 µM: read-out: % Enzyme Activity (relative to DMSO controls), ERK7/MAPK15
T1 sequence (Q8TD08 1-544): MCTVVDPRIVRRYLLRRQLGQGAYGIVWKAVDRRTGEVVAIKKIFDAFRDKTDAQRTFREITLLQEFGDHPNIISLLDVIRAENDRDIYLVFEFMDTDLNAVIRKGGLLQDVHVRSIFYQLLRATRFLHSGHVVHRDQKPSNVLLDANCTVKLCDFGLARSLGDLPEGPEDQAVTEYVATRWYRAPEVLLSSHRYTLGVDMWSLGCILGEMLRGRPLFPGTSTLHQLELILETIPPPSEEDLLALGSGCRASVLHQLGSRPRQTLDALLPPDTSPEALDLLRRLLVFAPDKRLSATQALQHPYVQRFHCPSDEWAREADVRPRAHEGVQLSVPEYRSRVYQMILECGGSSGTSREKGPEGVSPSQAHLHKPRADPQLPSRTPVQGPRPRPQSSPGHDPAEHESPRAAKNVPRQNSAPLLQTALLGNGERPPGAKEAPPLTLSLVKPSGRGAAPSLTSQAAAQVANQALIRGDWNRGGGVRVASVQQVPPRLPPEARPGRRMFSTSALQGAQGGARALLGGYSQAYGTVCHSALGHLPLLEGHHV

c-Kit = c-Kit (Homo sapiens, UniProt P10721); assay: Kinase assay, wild type kinases; settings: compound 10 μM, 10 μM ATP, duplicate (Data 1, Data 2), >100 activation, <100 inhibition; for remaining activity at 10 µM: read-out: % Enzyme Activity (relative to DMSO controls), c-Kit
c-Kit, sequence (P10721 26-976): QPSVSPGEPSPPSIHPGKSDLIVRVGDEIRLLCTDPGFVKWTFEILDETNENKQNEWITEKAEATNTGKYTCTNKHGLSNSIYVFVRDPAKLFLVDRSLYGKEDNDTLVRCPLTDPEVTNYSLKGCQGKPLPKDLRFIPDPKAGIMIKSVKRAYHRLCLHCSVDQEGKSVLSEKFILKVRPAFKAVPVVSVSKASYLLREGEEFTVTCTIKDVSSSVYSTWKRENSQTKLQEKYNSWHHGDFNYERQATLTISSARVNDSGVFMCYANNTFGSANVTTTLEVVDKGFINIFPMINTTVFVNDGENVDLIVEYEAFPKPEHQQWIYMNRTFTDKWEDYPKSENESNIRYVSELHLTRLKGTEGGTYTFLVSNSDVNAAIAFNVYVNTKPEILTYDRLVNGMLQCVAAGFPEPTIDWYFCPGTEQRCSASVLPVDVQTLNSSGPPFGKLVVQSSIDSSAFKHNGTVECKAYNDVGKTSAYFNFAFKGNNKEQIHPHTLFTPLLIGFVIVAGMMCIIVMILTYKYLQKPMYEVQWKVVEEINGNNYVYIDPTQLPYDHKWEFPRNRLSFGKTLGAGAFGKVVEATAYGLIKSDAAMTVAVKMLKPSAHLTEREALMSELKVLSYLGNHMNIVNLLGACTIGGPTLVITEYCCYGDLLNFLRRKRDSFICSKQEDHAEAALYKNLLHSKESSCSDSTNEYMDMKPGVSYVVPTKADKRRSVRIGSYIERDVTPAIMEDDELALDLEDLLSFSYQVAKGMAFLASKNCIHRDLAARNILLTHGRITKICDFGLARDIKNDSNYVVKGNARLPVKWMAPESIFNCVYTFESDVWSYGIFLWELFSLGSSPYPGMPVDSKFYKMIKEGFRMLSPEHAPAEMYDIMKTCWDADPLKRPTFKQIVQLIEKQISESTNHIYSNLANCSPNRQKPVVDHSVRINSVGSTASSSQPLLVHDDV

PIM3 = PIM3 (Homo sapiens, UniProt Q86V86); assay: Kinase assay, wild type kinases; settings: compound 10 μM, 10 μM ATP, duplicate (Data 1, Data 2), >100 activation, <100 inhibition; for remaining activity at 10 µM: read-out: % Enzyme Activity (relative to DMSO controls), PIM3
GSK3b = GSK3b (Homo sapiens, UniProt P49841); assay: Kinase assay, wild type kinases; settings: compound 10 μM, 10 μM ATP, duplicate (Data 1, Data 2), >100 activation, <100 inhibition; for remaining activity at 10 µM: read-out: % Enzyme Activity (relative to DMSO controls), GSK3b
GSK3b, sequence (P49841 whole entry, species assumed): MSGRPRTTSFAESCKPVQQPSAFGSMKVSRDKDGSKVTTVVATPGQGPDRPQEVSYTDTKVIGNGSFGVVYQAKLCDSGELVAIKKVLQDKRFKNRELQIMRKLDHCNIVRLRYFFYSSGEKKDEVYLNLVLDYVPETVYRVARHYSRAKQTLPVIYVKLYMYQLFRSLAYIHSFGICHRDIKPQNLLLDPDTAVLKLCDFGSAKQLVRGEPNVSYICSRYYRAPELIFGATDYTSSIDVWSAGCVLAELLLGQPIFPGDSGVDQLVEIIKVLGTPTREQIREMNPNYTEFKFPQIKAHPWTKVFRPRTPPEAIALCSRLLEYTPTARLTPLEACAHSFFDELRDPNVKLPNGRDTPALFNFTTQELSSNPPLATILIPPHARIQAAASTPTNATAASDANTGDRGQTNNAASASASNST

LIMK1 = LIMK1 (Homo sapiens, UniProt P53667); assay: Kinase assay, wild type kinases; settings: compound 10 μM, 10 μM ATP, duplicate (Data 1, Data 2), >100 activation, <100 inhibition; for remaining activity at 10 µM: read-out: % Enzyme Activity (relative to DMSO controls), LIMK1
LIMK1, sequence (P53667 whole entry, species assumed): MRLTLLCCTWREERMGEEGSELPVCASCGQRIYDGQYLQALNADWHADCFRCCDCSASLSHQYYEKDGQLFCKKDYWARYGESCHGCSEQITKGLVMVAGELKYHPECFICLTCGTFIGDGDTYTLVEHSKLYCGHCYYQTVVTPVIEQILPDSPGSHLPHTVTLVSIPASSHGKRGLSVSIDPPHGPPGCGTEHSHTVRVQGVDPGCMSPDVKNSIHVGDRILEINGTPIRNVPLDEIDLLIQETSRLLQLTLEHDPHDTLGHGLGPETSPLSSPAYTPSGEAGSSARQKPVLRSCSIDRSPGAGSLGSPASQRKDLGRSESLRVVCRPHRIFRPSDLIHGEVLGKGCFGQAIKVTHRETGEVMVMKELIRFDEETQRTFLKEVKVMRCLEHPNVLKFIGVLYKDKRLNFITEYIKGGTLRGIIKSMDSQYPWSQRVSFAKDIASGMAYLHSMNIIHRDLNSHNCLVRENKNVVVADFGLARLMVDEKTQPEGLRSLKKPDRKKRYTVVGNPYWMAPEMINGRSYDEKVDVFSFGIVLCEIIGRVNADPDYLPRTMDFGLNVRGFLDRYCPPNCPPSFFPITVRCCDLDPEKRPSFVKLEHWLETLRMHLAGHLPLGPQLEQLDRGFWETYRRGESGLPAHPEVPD

FLT1/VEGFR1 = FLT1/VEGFR1 (Homo sapiens, UniProt P17948); assay: Kinase assay, wild type kinases; settings: compound 10 μM, 10 μM ATP, duplicate (Data 1, Data 2), >100 activation, <100 inhibition; for remaining activity at 10 µM: read-out: % Enzyme Activity (relative to DMSO controls), FLT1/VEGFR1
FLT1/VEGFR1, sequence (P17948 27-1338): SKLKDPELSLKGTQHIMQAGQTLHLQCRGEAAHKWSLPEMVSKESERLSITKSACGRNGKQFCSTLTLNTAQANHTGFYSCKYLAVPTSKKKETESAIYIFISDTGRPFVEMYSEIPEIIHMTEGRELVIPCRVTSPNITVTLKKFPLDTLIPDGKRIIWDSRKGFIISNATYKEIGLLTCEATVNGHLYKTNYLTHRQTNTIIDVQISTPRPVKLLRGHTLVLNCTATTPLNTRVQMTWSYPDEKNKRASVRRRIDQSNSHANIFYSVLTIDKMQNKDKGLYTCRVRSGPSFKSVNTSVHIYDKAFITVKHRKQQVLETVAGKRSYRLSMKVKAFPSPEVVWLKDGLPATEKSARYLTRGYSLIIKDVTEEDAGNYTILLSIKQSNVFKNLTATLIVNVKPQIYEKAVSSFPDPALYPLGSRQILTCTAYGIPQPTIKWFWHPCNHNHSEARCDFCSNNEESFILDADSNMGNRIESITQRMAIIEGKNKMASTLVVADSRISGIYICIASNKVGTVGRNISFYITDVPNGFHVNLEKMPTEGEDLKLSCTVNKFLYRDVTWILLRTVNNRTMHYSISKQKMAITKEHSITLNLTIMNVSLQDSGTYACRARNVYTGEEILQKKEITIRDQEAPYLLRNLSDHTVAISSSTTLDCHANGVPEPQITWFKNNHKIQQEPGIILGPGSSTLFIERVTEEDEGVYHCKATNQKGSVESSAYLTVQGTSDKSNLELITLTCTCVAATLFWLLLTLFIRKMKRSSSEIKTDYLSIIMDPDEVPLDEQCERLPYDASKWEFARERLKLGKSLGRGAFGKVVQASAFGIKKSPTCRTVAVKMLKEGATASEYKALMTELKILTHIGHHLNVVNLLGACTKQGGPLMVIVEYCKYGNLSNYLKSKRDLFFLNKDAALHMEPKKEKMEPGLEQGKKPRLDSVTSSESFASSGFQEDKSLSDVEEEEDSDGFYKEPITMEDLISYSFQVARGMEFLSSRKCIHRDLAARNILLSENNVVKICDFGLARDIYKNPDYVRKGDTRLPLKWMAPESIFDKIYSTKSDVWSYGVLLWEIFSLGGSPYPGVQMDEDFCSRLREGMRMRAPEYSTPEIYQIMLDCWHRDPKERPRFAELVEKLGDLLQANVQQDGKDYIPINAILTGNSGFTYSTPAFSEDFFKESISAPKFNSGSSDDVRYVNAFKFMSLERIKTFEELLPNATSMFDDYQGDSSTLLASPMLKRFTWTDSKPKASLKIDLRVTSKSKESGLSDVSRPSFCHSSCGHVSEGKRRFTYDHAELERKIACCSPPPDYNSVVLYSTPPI

Human ACC1 = target: T2, Human ACC1 (Homo sapiens, UniProt Q13085); assay: ACC1 enzymatic assay (ADP-Glo); settings: recombinant human ACC1 5 nM, 10 μM ATP, 10 μM acetyl CoA; Run 1-3; read-out: Compound IC50 (M) ACC1
T2 construct: FLAG (C); His (C); purchased BPS Biosciences 50202; host or cells: Baculovirus infected Sf9 cells
Procedure: Human ACC1 (Cat#50202 Lot #120830) and ACC2 (Cat #50201 Lot #160217) were obtained from BPS Biosciences, San Diego, Calif. 92121. Human ACC1 had C-terminal flag and His-tags with a MW of 270 KDa after purification from Baculovirus infected Sf9 cell expression system and came as a solution in 50 mM Tris-HCl, pH 8.0, 500 mM NaCl, 10% glycerol, 1 mM DTT, 100 μg/ml FLAG peptide with 70% purity. The stock concentration was 0.25 mg/ml corresponding to 0.926 μM. Human ACC2 was also purified from Baculovirus infected Sf9 expression system. […] The stock concentration was 0.1 mg/ml corresponding to 0.36 μM. The assay buffer for measuring the activity of ACC contained: 30 mM HEPES (pH 7.4), 2 mM MgCl2, 0.01% Brij35, 2 mM DTT, 1% DMSO (solvent for compound). For ACC1 and ACC2 assays, the following concentrations of substrate and cofactors were used: 12 mM NaHCO3, 10 μM acetyl CoA, 10 μM ATP, and 2 mM K-citrate. The recombinant human enzyme was used at 5 nM for ACC1 and 1 nM for ACC2. In brief, enzyme alone in the above buffer without substrate was used for background. All test materials were dissolved in 100% DMSO using acoustic technology (Echo550). The prepared solution was preincubated for 15 min followed by the addition of 5 μL/well of ADP standard. ATP was then added to start the reaction. The assay contents were spun and briefly shaken followed by incubation at room temperature for 1 h. At the end of completion of assay, 5 μL of ADP-Glo was added to each well to stop the reaction. The contents were mixed, spun and incubated at room temperature for 40 min followed by the addition of 10 μL/well of ADP detection reagent. The contents were spun, mixed and covered with plastic to measure luminescence. […] The light generated, measured in a luminometer, correlates to the amount of ADP generated in the ACC assay, which is indicative of ACC activity.
The enzyme concentrations for ACC1 and ACC2 were 5 nM and 1 nM, respectively.
Data represent nM or μM ADP produced, % Activity (relative to no inhibitor controls), and curve fits were performed by GraphPad Prism software. The IC50 concentration-response curves were generated for both the ACC1 and ACC2 assays using recombinant human ACC.

Aurora B, sequence (Q96GD4 whole entry): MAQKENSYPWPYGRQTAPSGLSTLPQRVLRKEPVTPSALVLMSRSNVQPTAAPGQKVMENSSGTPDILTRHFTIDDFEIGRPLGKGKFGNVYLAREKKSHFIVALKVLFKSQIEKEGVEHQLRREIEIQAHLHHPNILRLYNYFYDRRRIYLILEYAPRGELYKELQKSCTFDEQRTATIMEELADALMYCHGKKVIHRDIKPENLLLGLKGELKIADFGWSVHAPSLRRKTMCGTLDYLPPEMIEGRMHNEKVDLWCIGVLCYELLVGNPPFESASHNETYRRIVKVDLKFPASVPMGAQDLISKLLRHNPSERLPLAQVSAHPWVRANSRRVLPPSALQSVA

Row | SMILES | remaining activity at 10 µM (Aurora B) [%] | remaining activity at 10 µM (MAPKAPK2) [%] | remaining activity at 10 µM (ERK7/MAPK15) [%] | remaining activity at 10 µM (c-Kit) [%] | remaining activity at 10 µM (PIM3) [%] | remaining activity at 10 µM (GSK3b) [%] | remaining activity at 10 µM (LIMK1) [%] | remaining activity at 10 µM (FLT1/VEGFR1) [%] | % Enzyme Activity (relative to DMSO controls), Aurora B (Aurora B) | % Enzyme Activity (relative to DMSO controls), MAPKAPK2 (MAPKAPK2) | % Enzyme Activity (relative to DMSO controls), ERK7/MAPK15 (ERK7/MAPK15) | IC50 (Human ACC1) | % Enzyme Activity (relative to DMSO controls), c-Kit (c-Kit) | % Enzyme Activity (relative to DMSO controls), PIM3 (PIM3) | % Enzyme Activity (relative to DMSO controls), GSK3b (GSK3b) | % Enzyme Activity (relative to DMSO controls), LIMK1 (LIMK1) | % Enzyme Activity (relative to DMSO controls), FLT1/VEGFR1 (FLT1/VEGFR1)
1 | CC(C)(CCCCc1ccc(CCCCC(C)(C)C(=O)O)cc1)C(=O)O [Compound I-1, 6-[4-(5-carboxy-5-methylhexyl)-phenyl]-2,2-dimethylhexanoic acid] | 69 | 93.1 | 100 | 85.5 | 87.9 | 83.2 | 81 | 90.3 | – | – | – | – | – | – | – | – | –
2 | CC(C)(CCCCc1ccc(CCCCC(C)(C)C(=O)SCCNC(=O)CCNC(=O)[C@H](O)C(C)(C)COP(=O)(O)OP(=O)(O)OC[C@H]2O[C@@H](n3cnc4c(N)ncnc43)[C@H](O)[C@@H]2OP(=O)(O)O)cc1)C(=O)O [Compound I-1-CoA, 6-[4-(5-carboxy-5-methylhexyl)-phenyl]-2,2-dimethylhexanoic acid Coenzyme A ester] | – | – | – | – | – | – | – | – | 36.79% and 32.68% | 85.04% and 84.66% | 51.57% and 45.02% | 1.63e-05 M and 1.33e-05 M and 1.25e-05 M | 73.56% and 73.24% | 73.92% and 70.32% | 63.29% and 62.44% | 77.88% and 76.61% | 84.17% and 82.94%
3 | CC(C)(CCCCc1cccc(CCCCC(C)(C)C(=O)O)c1)C(=O)O [Compound I-32, 6-[3-(5-carboxy-5-methylhexyl)-phenyl]-2,2-dimethylhexanoic acid] | 71.4 | 91.7 | 104 | 73.6 | 90 | 78 | 83.8 | 92.3 | – | – | – | 0.000284 M and 0.000272 M and 0.00022 M | – | – | – | – | –
4 | CC(C)(CCCCc1cccc(CCCCC(C)(C)C(=O)SCCNC(=O)CCNC(=O)[C@H](O)C(C)(C)COP(=O)(O)OP(=O)(O)OC[C@H]2O[C@@H](n3cnc4c(N)ncnc43)[C@H](O)[C@@H]2OP(=O)(O)O)c1)C(=O)O [Compound I-32-CoA, 6-[3-(5-Carboxy-5-methylhexyl)-phenyl]-2,2-dimethylhexanoic acid Coenzyme A Ester] | – | – | – | – | – | – | – | – | 33.27% and 30.67% | 17.17% and 15.90% | 88.39% and 80.61% | 5.07e-06 M and 5e-06 M and 6.03e-06 M | 49.53% and 49.21% | 51.10% and 43.67% | 23.69% and 22.51% | 47.31% and 45.01% | 52.06% and 51.61%
